Experimental findings from patent US20060079453A1, “Hla binding peptides and their uses” (priority 2002, published 2006) are described below.

Experiment in all cases: biochemical
The target of one assay is HLA-B*0702 (Homo sapiens, UniProt P01889). In kind it is binding. The note with it: B*0702 binding affinity (IC50).
A further assay has as its target H-2Dd (Mus musculus, UniProt P01900). The class given is binding, murine.
Another assay concerns the target H-2 Db (Mus musculus, UniProt P01899). The class given is binding, murine.
Assay [1] addresses HLA-DQ DQA1*0301/B*0301 (DQ7) (Homo sapiens, UniProt P01909+P01920, A209T/C70Q/DUP78-78/E183D/F237L/G63E/I129T/K197E/L178F/L74F/L98V/Q57E/Q76R/S185I/S97I/T49S/V73L). The class given is binding. The settings on record: read-out: DQB1*0301.
The target of a further assay is HLA-DR DRB1*1101 (DR11) (Homo sapiens, UniProt P01903+P01911, A100R/A169T/A87E/I96F/K41T/L162R/M171V/P40S/Q125H/Q178H/Q39Y/Q99D/R42S/S66Y/T262R/V115G/W38E). In kind it is binding. The settings on record: read-out: DRB1 *1101.
Another assay has as its target HLA-DR DRB1*1501 (DR15) (Homo sapiens, UniProt P01903+P01911). The class given is binding. The note with it: read-out: DRBI *1501.
In a further assay the target is HLA-DR DRB5*0101 (DR51) (Homo sapiens, UniProt P01903+Q30154). In kind it is binding. The settings on record: read-out: DRB5 *0101.
For the next assay, the target named is HLA-DR DRB1*1302 (DR13) (Homo sapiens, UniProt P01903+P01911, A100E/A169T/K41T/L162R/M171V/P40S/Q125H/Q178H/Q39Y/Q99D/R42S/S66N/T262R/V115G/W38E/Y61H). The class given is binding. The note with it: read-out: DRBI *1302.
For a further assay, the target named is HLA-DR DRB4*0101 (DR53) (Homo sapiens, UniProt P01903+P13762, G164S). In kind it is binding. The note with it: read-out: DRB4 *0101.

Values joined by “and” are separate entries in the source; they are usually repeats but may differ in a detail not shown here. Equal entries are not always repeated. Where two headings read alike, the source gives them in different places. No end group written: not given here.

Sequence of H-2 Db (P61769 21-119): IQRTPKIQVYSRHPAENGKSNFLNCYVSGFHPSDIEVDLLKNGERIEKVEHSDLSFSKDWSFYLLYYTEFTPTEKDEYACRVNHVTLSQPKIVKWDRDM
Sequence of H-2 Db (P01899 25-362): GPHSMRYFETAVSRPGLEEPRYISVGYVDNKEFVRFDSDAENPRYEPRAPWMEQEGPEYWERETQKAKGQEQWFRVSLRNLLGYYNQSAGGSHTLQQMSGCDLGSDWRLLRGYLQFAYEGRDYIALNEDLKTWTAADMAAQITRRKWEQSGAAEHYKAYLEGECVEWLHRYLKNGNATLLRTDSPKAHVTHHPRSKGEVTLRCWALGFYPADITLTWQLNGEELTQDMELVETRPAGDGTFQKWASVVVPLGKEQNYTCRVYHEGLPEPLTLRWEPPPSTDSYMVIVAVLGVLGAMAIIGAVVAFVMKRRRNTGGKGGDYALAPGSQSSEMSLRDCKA
Sequence of H-2Dd (P01900 25-365): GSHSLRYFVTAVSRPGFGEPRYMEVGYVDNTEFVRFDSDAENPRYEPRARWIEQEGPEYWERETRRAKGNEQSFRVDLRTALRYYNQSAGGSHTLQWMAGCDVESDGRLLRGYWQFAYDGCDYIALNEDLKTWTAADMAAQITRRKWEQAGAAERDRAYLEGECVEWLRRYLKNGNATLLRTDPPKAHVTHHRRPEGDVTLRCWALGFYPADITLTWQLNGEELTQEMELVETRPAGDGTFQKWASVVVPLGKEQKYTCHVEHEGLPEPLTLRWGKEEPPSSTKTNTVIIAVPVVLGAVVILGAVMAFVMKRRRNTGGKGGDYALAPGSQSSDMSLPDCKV
Sequence of H-2Dd (P61769 21-119, further chain): as the sequence (P61769 21-119) above
Sequence of HLA-DR DRB1*1302 (DR13) (P01903 26-254 limits assumed, other chains not shown): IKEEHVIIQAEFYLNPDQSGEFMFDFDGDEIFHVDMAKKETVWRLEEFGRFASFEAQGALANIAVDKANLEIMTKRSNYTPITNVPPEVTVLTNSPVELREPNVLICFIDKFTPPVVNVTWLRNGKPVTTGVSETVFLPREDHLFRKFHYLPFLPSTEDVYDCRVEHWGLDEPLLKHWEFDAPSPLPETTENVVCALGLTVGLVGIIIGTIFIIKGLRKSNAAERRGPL
Sequence of HLA-DR DRB1*1101 (DR11) (P01903 26-254 limits assumed, other chains not shown): as above

Compound RPGPGPGAV yielded an IC50 on HLA-B*0702 of 23 nM.

Consider RGPYRAFVAI, for which, at H-2Dd, the IC50 came to 1.3 nM.

In turn, RGPYRAFKTI came in with an IC50 at H-2Dd of 2.3 nM.

APRGPGPGL showed an IC50 on HLA-B*0702 of 4.9 nM.

On H-2 Db (Db), RMIQNSLTI yielded an IC50 of 4.6 nM.

On H-2 Db (Db), SHYAFSPM returned an IC50 of more than 88000 nM.

On H-2 Db (Db), SSMHNALHI returned an IC50 of 7.6 nM.

Take DDVWLGGLAEKFLPY: the IC50 in assay [1] was found to be 241 nM.

As to CLKDRRNFDIIPEEIK, in [1], the IC50 was 19400 nM.

For RGPYKAFVTI, at H-2Dd, the IC50 was 13 nM.

Take QLQQFQKEDAAVTIY: the IC50 is more than 408000 nM at HLA-DR DRB1*1101 (DR11); 1720 nM on HLA-DR DRB1*1501 (DR15); 4270 nM on HLA-DR DRB5*0101 (DR51); 68 nM on HLA-DR DRB1*1302 (DR13); 26200 nM in assay [1]; 1340 nM on HLA-DR DRB4*0101 (DR53).

WGPSLYSIL yielded an IC50 against H-2Dd of 6.6 nM.

As for APRGPGPGAL [APRGPGPGAL], on HLA-B*0702, the IC50 worked out at 11 nM.

APGPGPGTAL [APGPGPGTAL] showed an IC50 on HLA-B*0702 of 81 nM.

The compound RGPYRAYVTI gave an IC50 against H-2Dd of 2.1 nM.

With `CSCC[C@H](NC(=O)[C@H](C)NC(=O)[C@H](C)NC(=O)[C@H](C)NC(=O)[C@H](CC(N)=O)NC(=O)[C@H](C)NC(=O)[C@H](C)NC(=O)[C@H](C)NC(=O)[C@H](C)NC(=O)[C@H](C)NC(=O)[C@H](C)N)C(=O)O`, at H-2 Db (Db), the IC50 stood at 257 nM.

APAAPGPGPGA registered an IC50 on HLA-B*0702 of 811 nM.

For RGPGRAYVTI, the IC50 on H-2Dd was determined as 14 nM.

In the case of `CC(C)[C@H](NC(=O)[C@@H](NC(=O)[C@H](CC(=O)O)NC(=O)[C@H](CO)NC(=O)[C@H](CC(N)=O)NC(=O)[C@@H](NC(=O)CNC(=O)[C@H](CS)NC(=O)[C@@H](N)Cc1ccccc1)C(C)C)[C@@H](C)O)C(=O)O`, the IC50 against H-2 Db (Db) was 206 nM and 166 nM.

Compound RGPYRAFVKI had an IC50 against H-2Dd of 3.9 nM.

With ASNENMDAM, the IC50 against H-2 Db (Db) was 28 nM.

For GGAYRLIVF, the IC50 against H-2Dd came out at 3.5 nM.

On to CSANNSHHYM, for which the IC50 on H-2 Db (Db) amounted to 42 nM.

As for QKEDAAVTIYIEMLQN, the IC50 in [1] was 515 nM.

As for SFYRNLLWL, at H-2 Db (Db), the IC50 was 46 nM and 304 nM.

With SQVMNLHNL, on H-2 Db (Db), the IC50 stood at 2.3 nM.

Consider TGIGNQNII, for which the IC50 on H-2 Db (read-out: Db) stood at 13 nM.

Compound RPRFRGPGPGF returned an IC50 at HLA-B*0702 of 9.7 nM.

On to AAAANAAAM, for which the IC50 against H-2 Db (Db) is 23 nM.

As to `CSCC[C@H](NC(=O)[C@H](C)NC(=O)[C@H](C)NC(=O)[C@H](Cc1ccc(O)cc1)NC(=O)[C@H](C)NC(=O)[C@H](C)NC(=O)[C@H](C)NC(=O)[C@H](C)N)C(=O)O`, at H-2 Db (Db), the IC50 was more than 44000 nM.

As for KEDSHCAWTWRVEI, the IC50 in [1] came to 4100 nM.
